Assays:
serum lipid levels [1] = test: Example 1: serum lipid levels; assay type: in vivo, human
Method: In this study, lipids related to lipoprotein metabolism were determined as serum lipid test items. In the active group, postprandial elevations for RLP-C, TG, LDL-TG, HDL-TG, CM-TG, and ApoB48 (reference data) were inhibited, while LDL-C, HDL-C, TC, and ApoB values decreased. The manifestation of those effects required 3 to 7 days. […] This effect is attributable to the inhibition of diet-derived lipid absorption based on the MTP inhibitory activity of the compound of formula (I) in the small intestine.

[2] = Example 2: repeated oral dose study of tablets QD or BID, safety; assay type: in vivo, human
Method: (§1) Each tablet contained 5 mg (BID), 10 mg (QD), 20 mg (QD), or 30 mg (QD).

serum lipid levels [3] = test: Example 3: serum lipid levels; assay type: in vivo, human; conditions: active groups
Method: Eighteen healthy Japanese males 20 to 35 years of age with a BMI of 18.5 to 25 kg/m^2 participated in the study. The subjects were divided into two dosing groups and within each dosing group, the subjects were divided as follows: 6 subjects received the compound of formula (I) and 3 subjects received placebo. The dosing regimen was oral administration of a tablet twice a day for 14 days after breakfast and dinner (specifically, within 180 minutes of the commencement of eating), in which each tablet contained 1 mg (2 mg/day) or 2 mg (4 mg/day).

serum lipid levels [4] = test: Example 2: serum lipid levels; assay type: in vivo, human
Method: as §1

[5] = Example 6: pharmacokinetics; assay type: in vivo, human; conditions: 5 to 20 mg QD and BID, healthy males; generally BLQ
Text: Originally, the study was planned as 4 sequential cohorts of healthy male Caucasian subjects (Cohorts 1 to 4) followed by a cohort of male Caucasian patients with elevated triglycerides (HTG patients, Cohort 5). An additional cohort of healthy male Caucasian subjects (Cohort 4.1) was enrolled into the study (6 cohorts in total). The cohorts were as follows: Cohorts 1 to 4.1 had healthy Caucasian males, aged 18-45 years with a body weight of 60-100 kg and body mass index (BMI) between 19-28 kg/m^2 at screening and fasting triglycerides less than 1.69 mmol/L (less than 150 mg/dL) at the screening visit and Day-3. Cohort 5 had Caucasian males, aged 18-50 years with a body weight of 60-115 kg and BMI less than 35 kg/m^2 at screening and with elevated fasting triglycerides (TG≧1.69 mmol/L and <5.62 mmol/L; ≧150 mg/dL and <500 mg/dL) at the screening visit and Day-3.
The planned treatment for Cohorts 1 to 4 was twice daily administration of 5 mg, 10 mg or 15 mg the compound of formula (I)/placebo, or once daily administration of 30 mg the compound of formula (1)/placebo. […] As only the compound of formula (I) 5 mg capsules were supplied for this study, doses were administered once daily to determine the maximum tolerated dose, and the planned doses for each subsequent cohort were amended based on the safety and tolerability data obtained from the preceding cohort. The dose level and dosing schedule planned for the patients in Cohort 5 was determined by the maximum tolerated dose and dosing schedule as reported from the planned Cohorts 1 to 4.1.
Twelve healthy male Caucasian subjects were enrolled in each of Cohorts 1 to 4.1; dose cohorts were randomized in a ratio 9:3 to receive the compound of formula (I) or placebo, respectively, at the dose level associated with that cohort. Twelve male Caucasian patients with elevated triglycerides were randomized in a ratio of 8:4 to receive the compound of formula (I) or placebo, respectively, at the maximum tolerated dose level and dosing schedule.

[6] = Example 3: pharmacokinetics; assay type: in vivo, human; conditions: all dose groups
[7] = Example 5: pharmacokinetics; assay type: in vivo, human; conditions: subjects other than two
Method: Fifty-two Japanese patients with hyperlipidemia (LDL-C between 140 and 220 mg/dL; TG≦400 mg/dL) participated in the study. […] One group received a fixed dose of 2 mg per tablet through the entire study. The other group received escalating doses of 0.5 mg (weeks 1-4), 1 mg (weeks 5-8), and 2 mg (weeks 9-12). For the efficacy analysis, 50 subjects were observed (25 in the fixed-dose group and 25 in the dose escalation group).
The objective of this study was preliminary evaluation of the efficacy (based on serum lipid levels), safety, and pharmacokinetics of the compound of formula (I) administered orally twice daily after breakfast and supper for 12 weeks as a fixed dose (4 mg/day) or escalating dose (1 mg/day, 2 mg/day and 4 mg/day) regimen in patients with hyperlipidemia.

[8] = Example 2: plasma and urine pharmacokinetics; assay type: in vivo, human
Method: as §1

[9] = Example 3: repeated dose study of tablets 1 or 2 mg BID, safety
Method: The subjects were divided into two dosing groups and within each dosing group, the subjects were divided as follows: 6 subjects received the compound of formula (I) and 3 subjects received placebo.
For the determination of plasma concentrations of the compound of formula (I) and metabolite M1 in this study, the bioanalytical method achieved a sensitivity (LLOQ) of 0.3 ng/mL. Adverse event (AE) information was collected from each subject.

[10] = Earlier phase 1 single dose clinical study; assay type: in vivo, human
[11] = Example 7: ascending dose study in obese subjects, pharmacokinetics
Method: This example involved a clinical study of the compound of formula (I), which was a randomized, double-blind, placebo-controlled, ascending dose study to evaluate the safety, tolerability and pharmacokinetics/pharmacodynamics of the compound of formula (I) tablets administered twice daily for two weeks in obese subjects.
The subjects were separated into four arms of nine (one with ten) test subjects (which were administered the compound of formula (I)) and three placebo subjects.

[12] = 10, 20, 30 mg QD, initial dose Day 1

For `CCOC(=O)C(COC(=O)Cc1ccc(NC(=O)c2ccccc2-c2ccc(C(F)(F)F)cc2)c(C(=O)N(C)C)c1)(C(=O)OCC)c1ccccc1` [compound of formula (I), diethyl 2-((2-(3-(dimethylcarbamoyl)-4-(4′-(trifiuoromethyl)biphenyl-2-ylcarboxamido)phenyl)acetoxy)methyl)-2-phenyl malonate], the “LDL-C, HDL-C, TC, and ApoB values” (serum lipid levels [1]; active group) was “decreased”, the “postprandial elevations for RLP-C, TG, LDL-TG, HDL-TG, CM-TG, and ApoB48” value (serum lipid levels [1]; active group) was “inhibited” and the “increase in postprandial values for RLP-C, TG, LDL-TG, HDL-TG, and CM-TG” value (serum lipid levels [1]; after the first dose on Day 1) was “inhibited an increase”. The incidence of diarrhea ([2]; 5 mg BID) was 100%, the “incidence of moderate diarrhea” value ([2]; 5 mg BID) was 66.7% and the “incidence of vomiting (moderate)” value ([2]; 5 mg BID) was 16.7%. The “number of diarrhea events” value ([2]; 5 mg BID) was 7, the “subjects with adverse events (incidence)” value ([2]; 5 mg BID) was 100.0% and the “suitability as clinical dose for hyperlipidemic patients” value ([2]; 5 mg BID) was “inappropriate as a clinical dose”. The “subjects with adverse events (incidence)” value ([2]; 10 mg QD) was 50.0%, the incidence of diarrhea ([2]; 20 mg QD) was 16.7% and the “incidence of moderate diarrhea” value ([2]; 20 mg QD) was 16.7%. The “number of diarrhea events” value ([2]; 20 mg QD) was “One”, the “subjects with adverse events (incidence)” value ([2]; 20 mg QD) was 66.7% and the incidence of diarrhea ([2]; 30 mg QD) was 66.7%. For the same molecule, the “incidence of moderate diarrhea” value ([2]; 30 mg QD) was 50.0%, the “number of diarrhea events” value ([2]; 30 mg QD) was 4 and the “subjects with adverse events (incidence)” value ([2]; 30 mg QD) was 66.7%. The “vitamin E levels” value ([2]; 30 mg QD) was “decreased on Day 7”, the subjects with queasiness ([2]; 30 mg dose) was 2 of 6 subjects and the “incidence of infection and infestation (SOC)” value ([2]; active group) was 4.2%. For the same molecule, the “incidence of investigation (SOC)” value ([2]; active group) was 20.8%, the “incidence of metabolism and nutrition disorder (SOC)” value ([2]; active group) was 4.2% and the “incidence of gastrointestinal disorder (SOC)” value ([2]; active group, 24 subjects) was 58.3%. The “incidence of CK increased” value ([2]; overall compound group) was 12.5%, the “incidence of abdomen enlarged feeling” value ([2]; overall compound group) was 20.8% and the incidence of diarrhea ([2]; overall compound group) was 45.8%. The “incidence of loose stools” value ([2]; overall compound group) was 20.8%, the “incidence of stomach discomfort” value ([2]; overall compound group) was 25.0% and the “number of diarrhea events” value ([2]; overall compound group) was “Twelve”. For the same molecule, the “subjects with adverse events (incidence)” value ([2]; overall compound group, 24 subjects) was 70.8%, the fat-soluble vitamin levels ([2]; remaining groups (10 mg QD, 20 mg QD, 5 mg BID)) was “did not decrease” and the “death or serious adverse events” value ([2]; tablets, 14 days) was “No death or other serious adverse events occurred”. For the same molecule, the “postprandial elevation in TG, HDL-TG, LDL-TG, Midband-TG, and CM-TG” value (serum lipid levels [3]) was “inhibited a postprandial elevation”, the “postprandial elevations for TG, HDL-TG, LDL-TG, Midband-TG, VLDL-TG, CM-TG, and ApoB48” value (serum lipid levels [4]; active group) was “suppressed” and the “TC, HDL-C, LDL-C, and ApoB values” (serum lipid levels [4]; by and after Day 7) was “decreased”. For the same molecule, the “plasma concentrations of the compound of formula (I)” value (shortened to “plasma concentrations”) [5] was < 3 ng/mL, the “plasma concentrations” value [6] was “below the limit of quantization” and the “Cmin of the compound of formula (I)” value [7] was “below the lower limit of quantization”. For the same molecule, the “subjects with Cmin detected sporadically” value ([8]; 5 mg BID) was 4 of 6 subjects, the “Cmin of the compound of formula (I)” value ([8]; 10 mg QD, Day 2 to 14) was “below the limit of quantization” and the “subjects with Cmin detected sporadically” value ([8]; 20 mg QD) was 1 of 6 subjects. The “subjects with Cmin detected sporadically” value ([8]; 30 mg QD) was 4 of 6 subjects, the AUC0-24hr dose proportionality [8, 12] was “greater than dose-proportional” and the Cmax dose proportionality [8, 12] was “greater than dose-proportional”. The “plasma compound of formula (I)” value ([8]; after initial dose on Day 1, all groups) was “quantifiable”, the compound in urine ([8]; all groups) was “not quantifiable in urine” and the “Cmin of the compound of formula (I)” value ([8]; all subjects) was “less than 3 ng/mL”. For the same molecule, the “Cmax and AUC0-24hr dose proportionality” value ([8]; final dose on Day 14) was “dose-proportional”, the “subjects with adverse events (incidence)” value ([9]; 1 mg BID) was 66.7% and the “subjects with adverse events (incidence)” value ([9]; 2 mg BID) was 50.0%. For the same molecule, the “fat-soluble vitamins (vitamin A, 25-OH vitamin D, and vitamin E)” value ([9]; 1 and 2 mg BID) was “no decrease”, the “severity of all adverse events” value ([9]; 1 and 2 mg BID) was “mild” and the “death or serious adverse events” value ([9]; 1 or 2 mg BID tablets, 14 days) was “No death or other serious adverse events occurred”. The “subjects with adverse events (incidence)” value ([9]; active group, 12 subjects) was 58.3%, the incidence of diarrhea ([9]; overall compound group) was 25.0% and the “incidence of gastrointestinal disorders (SOC)” value ([9]; overall compound group) was 41.7%. The “incidence of investigations (SOC)” value ([9]; overall compound group) was 33.3%, the “incidence of loose stools” value ([9]; overall compound group) was 25.0% and the tolerable dose ([9]; twice daily for 14 days, tablets) was “up to 2 mg”. The “doses at which diarrhea was observed” value [10] was ≥ 60 mg, the “plasma concentrations” value ([11]; 1 mg, Day 14) was “not quantifiable” and the “time up to which concentrations were quantifiable” value ([11]; 2.5 mg and 3.5 mg groups, Day 14) was “up to 5 hr”. For the same molecule, the “subjects with quantifiable concentrations” value ([11]; 2.5 mg, Day 14) was 2 of 8 subjects, the “subjects with quantifiable concentrations” value ([11]; 3.5 mg, Day 14) was 7 of 8 subjects and the “subjects with quantifiable concentrations” value ([11]; 5 mg, Day 14) was 2 of 3 subjects. The “time for which concentrations were quantifiable” value ([11]; 5 mg, Day 14) was “at least 6 hr”, the “plasma concentrations” value ([11]; 1 to 5 mg, Day 1) was “generally below the limit of quantization” and the “Cmax and AUC0-τ dose proportionality” value ([11]; 2.5 to 5 mg) was “approximately dose proportional”. The systemic exposure ([11]; BID for 14 days) was “negligible”, the “parent/metabolite ratio for AUC0-τ” value ([11]; all dose levels) was “less than 0.01” and the “parent/metabolite ratio for Cmax” value ([11]; all dose levels) was “less than 0.03”. The oral clearance ([11]; quantifiable dose groups) was “high oral clearance”.
